pEC50: −log10 of the molar value. Entries after “also recorded” stand apart in the source; their conditions may differ.
Columns and labels:
SHP = test: Quantitative RT-PCR of SHP (LRH-1 downstream target) transcript levels in treated human islets; type: cell-based; conditions: for Further stimulation of SHP expression: human islets, increased concentration of Formula II or addition of 17β-estradiol
Method: (§1) INS-1E cells or islets (rat or human) were cultured in phenol red free medium containing 10% Charcoal-stripped FCS for 48 h. The latter removes all traces of endogenous steroids, which may skew results. Subsequently, 0.0001% DMSO (vehicle) and/or 10 nM 17β-estradiol were added to the media. Alternatively human islets were also treated with increasing concentrations of either DMSO (vehicule) or with a combination of estrogen and the LRH-1 agonist of Formula II (SevenHills Pharma, Fort Collins, USA) for various time intervals. For apoptosis studies (FIG. 8A), islets were pre-treated with 0.1% DMSO (vehicule) or with 10 μM of the LRH-1 agonist of Formula II. Twenty-four hours later, DMSO or the LRH-1 agonist of Formula II were added again to the medium and incubated for 1 extra hour prior to the addition of either a cocktail of human cytokines (2 ng/ml IFN-γ, IL-1β and TNF-α). Samples of 50 islets were then collected at 24 and 72 hours. The media was replenished with DMSO and the LRH-1 agonist of Formula II at 24 and 48 hours.
(§2) Total RNA was extracted using the RNeasy Micro Kit (Qiagen) and 1-2 μg was converted into cDNA with the Superscript II Reverse transcriptase (Invitrogen). Primers were designed using the Primer Express software (Applera Europe, Rotkreuz, Switzerland) and sequences are provided in Table 1. Real time PCR was performed using an ABI 7000 Sequence Detection System (Applera Europe), and PCR products were quantified fluorometrically using the FastStart Universal SYBR Green Master (Roche Diagnostics, Rotkreuz, Switzerland). Three distinct amplifications were performed in duplicate for each transcript, and mean values were normalized to the mean value of the reference mRNA cyclophilin.

LRH-1 = test: Quantitative RT-PCR of LRH-1 transcript levels in treated human islets; type: cell-based; conditions: for LRH-1 expression (transcript levels): 10 nM 17β-estradiol (6 hours) or 10 or 50 uM Formula II (any time point)
Method: as §1, §2

Type 2 diabetic islets = test: Glucose-stimulated insulin secretion, islets from Type 2 diabetic donors; type: cell-based, human
Method: (§3) Twenty human islets/sample were preincubated with KRBH buffer (135 mM NaCl, 3.6 mM KCl, 2 mM NaHCO3, 0.5 mM NaH2PO4, 0.5 mM MgSO4, 1.5 mM CaCl2, 10 mM HEPES, pH 7.4, and 0.1% bovine serum albumin) containing 2.5 mM glucose for 30 min. Cells were then incubated for 30 min in KRBH buffer containing 2.5 mM or 16.5 mM glucose. In some instances islets were also cultured in the presence of increasing concentrations of a LRH-1 agonist of Formula II or glibenclamide. Insulin content, obtained by 10% acetic acid/ethanol (v/v) treatment on islets, and secreted insulin were quantified using the rat insulin enzyme immunoassay kit (Spi-Bio, Montigny le Bretonneux, France).

human islets [1] = test: MTT toxicity test (cell viability) in isolated human islets; type: cell-based; conditions: for Islet viability (MTT): islets of the first Type 2 diabetic donor, 48 h, Formula II at 50 uM
Method: The MTT (C,N-diphenyl-N′-4,5-dimethyl thiazol-2-yl tetrazolium bromide) colorimetric assay (reduction of tetrazolium salt to formazan) was used to measure cell viability. The assay provides an indirect estimation of mitochondrial oxidative processes of living cells (Janjic, 1992). Briefly, 40 isolated human islets were incubated for 24 or 48 hours with DMSO or a combination of DMSO and the LRH-1 agonist of Formula II. Islets were washed and pre-incubated with KRBH at 37° C. for 40 minutes. Islets were then incubated at 37° C. for 90 minutes with KRBH containing yellow MTT (0.5 mg/ml). Cells were wash and incubated for 20 minutes at room temperature in DMSO to solubilize formazan crystals. Colorimetric measurements were performed at 570 nm with reference wavelength 650 nm automatically subtracted.

human islets [2] = test: Cytokine-induced apoptosis in human islets (Cell Death Detection ELISA); type: cell-based; conditions: 10 uM, cytokines 2 ng/ml IFN-γ, IL-1β and TNF-α, 24 hours post-treatment
Method: INS-1E cells or islets (rat or human) were cultured in phenol red free medium containing 10% Charcoal-stripped FCS for 48 h. The latter removes all traces of endogenous steroids, which may skew results. Subsequently, 0.0001% DMSO (vehicle) and/or 10 nM 17β-estradiol were added to the media. Alternatively human islets were also treated with increasing concentrations of either DMSO (vehicule) or with a combination of estrogen and the LRH-1 agonist of Formula II (SevenHills Pharma, Fort Collins, USA) for various time intervals. For apoptosis studies (FIG. 8A), islets were pre-treated with 0.1% DMSO (vehicule) or with 10 μM of the LRH-1 agonist of Formula II. […]
For proliferation, 10 μM BrdU was added to INS-1E cells for 3 h, and to rat or human islets for 24 h. […] Cell apoptosis induced either by cytokines or streptozotocin was measured using the TUNEL assay (In Situ Cell Death Detection Kit, Roche). Alternatively, the Cell Death Detection ELISA^PLUS (Roche) was used to quantify the degree of cytoplasmic histone-associated-DNA-fragments. Results of BrdU and TUNEL assays are expressed as a percentage of BrdU- or TUNEL-positive cells (fluorescein- or TMR-red-labelled nuclei) over the total amount of cells (nuclei staining by DAPI). […]

control islets = test: Glucose-stimulated insulin secretion, control (non-diabetic) human islets; type: cell-based
Method: as §3

[3] = target: T1, ligand binding domain of human LRH1 (Homo sapiens, UniProt O00482); conditions: Whitby et al. (2006); cited from earlier work
T1 construct: made in house
T1 sequence (O00482 300-541): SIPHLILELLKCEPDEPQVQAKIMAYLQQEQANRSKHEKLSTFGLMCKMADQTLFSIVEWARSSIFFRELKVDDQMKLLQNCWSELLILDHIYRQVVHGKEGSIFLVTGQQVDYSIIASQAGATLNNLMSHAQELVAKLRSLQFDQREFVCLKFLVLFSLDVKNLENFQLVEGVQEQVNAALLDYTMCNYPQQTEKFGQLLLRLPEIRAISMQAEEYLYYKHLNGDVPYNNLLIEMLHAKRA

[4] = islets from a second Type 2 diabetic donor

SMILES | Further stimulation of SHP expression (SHP) | LRH-1 expression (transcript levels) (LRH-1) | Insulin secretion at high glucose as compared to control islets (Type 2 diabetic islets; islets from a Type 2 diabetic donor, high glucose (16.5 mM)) | Increase in insulin secretion at low glucose (Type 2 diabetic islets; islets from a Type 2 diabetic donor, low glucose) | Islet viability (MTT) (human islets [1]) | Cytokine-induced enrichment in apoptotic cells, 24 hours (human islets [2]) | Increase in basal insulin exocytosis (control islets; 50 uM, low glucose) | Glucose-induced insulin secretion (control islets; 16.5 mM glucose) | Glucose-induced insulin secretion (Type 2 diabetic islets; islets from a Type 2 diabetic donor, 50 uM, not significant) | Insulin secretion in response to high glucose concentrations (Type 2 diabetic islets; [4]) | Insulin secretion in response to low glucose concentrations (Type 2 diabetic islets; [4]) | Viability by MTT (cytotoxicity) (human islets [1]; human islets, up to 50 uM, 24 or 48 hours post treatment) | SHP transcript levels, increase (SHP; human islets treated for 10 hours, transient) | LRH-1 expression on addition to 17β-estradiol (LRH-1; Formula II combined with 17β-estradiol) | pEC50 [3]
C[C@]12CC[C@@H]3c4ccc(O)cc4CC[C@H]3[C@@H]1CC[C@@H]2O [17β-estradiol, reference compound] | did not further stimulate expression of SHP | transiently increased |  |  |  |  |  |  |  |  |  |  |  |  | 
COc1ccc(Cl)cc1C(=O)NCCc1ccc(S(=O)(=O)NC(=O)NC2CCCCC2)cc1 [Glibenclamide, reference compound] |  |  | 214% | 80% | impaired cell viability |  |  |  |  |  |  |  |  |  | 
CCC/C=C(\CCC)C1=C(c2cccc(OC)c2)C2(Nc3ccccc3)CCCC2C1 (stereo not drawn) [Formula II] | did not further stimulate expression of SHP | did not enhance transcript levels |  |  | slightly reduced | completely abrogated | 50% | unchanged | slight increase | increased insulin secretion | increased insulin secretion | no toxic effects; also recorded: no apparent detrimental effect | 2 fold | prevented the induction of LRH-1 expression | 6.37
